We go through 63 compounds from patent publication US9242973B2, “Chromane compounds” (CoMentis, Inc., priority 2012, dated 2016).

Structures can show the parent of a compound that is named as a salt.

For the test, the system named is Aβ production in SK-N-BE(2) neuroblastoma cells. Description: Test Example 3: Aβ production inhibition in cell (Aβ40 ELISA, SK-N-BE(2)). The note with it: Homo sapiens, SKNBE2, 6 h, read-out: Test Example 3 IC50, SK-N-BE(2) cells, 6 hours, Aβ40 ELISA normalized by viability.
`NC1=NC2(CO1)c1cc(-c3cncnc3)ccc1OC(C1CC1)C21COC1` (stereo not drawn) [RP 88]: the IC50 is 1400 nM.
As to `C#Cc1cncc(-c2ccc3c(c2)C2(COC(N)=N2)C2(COC2)CO3)c1` (stereo not drawn) [RP 23], the IC50 stood at 900 nM.
Take `COc1ccnc(-c2ccc3c(c2)C2(COC(N)=N2)C2(COC2)C(C)(C)O3)c1` (stereo not drawn) [RP 65, 6′-(4-methoxypyridin-2-yl)-2′,2′-dimethyldispiro[1,3-oxazole-4,4′-chromene-3′,3″-oxetan]-2-amine]: the IC50 is 49 nM.
Regarding `CC#Cc1cncc(-c2ccc3c(c2)C2(COC(N)=N2)C2(CC2)CO3)c1` (single isomer, unassigned) [RP 52a, 6′-[5-(prop-1-yn-1-yl)pyridin-3-yl]dispiro[cyclopropane-1,3′-chromene-4′,4″-[1,3]oxazol]-2″-amine], the IC50 amounted to 75 nM.
For `CC1(C)Oc2ccc(-c3ccc4nonc4c3)cc2C2(COC(N)=N2)C12COC2` (stereo not drawn) [RP 178], the IC50 came out at 810 nM.
`CC1(C)Oc2ccc(-c3cccc4cnccc34)cc2C2(COC(N)=N2)C12COC2` (stereo not drawn) [RP 180]: the IC50 came out at 490 nM.
Under `NC1=NC2(CO1)c1cc(Nc3ncccc3Cl)ccc1OC1(CCC1)C21COC1` (stereo not drawn) [RP 44] stands 98 nM; under `CNC(=O)c1cc(F)cc(-c2ccc3c(c2)C2(COC(N)=N2)C2(COC2)C(C)(C)O3)c1` (stereo not drawn) [RP 171], 3100 nM; under `N#Cc1cccc(-c2ccc3c(c2)C2(COC(N)=N2)C2(COC2)C2(CCC2)O3)c1` (stereo not drawn) [RP 128], 1500 nM.
Under `Cc1cnc(Cl)c(-c2ccc3c(c2)C2(COC(N)=N2)C2(COC2)C(C)(C)O3)c1` (stereo not drawn) [RP 151] stands 280 nM; under `CCOc1cccc(-c2ccc3c(c2)C2(COC(N)=N2)C2(COC2)C2(CCC2)O3)c1` (stereo not drawn) [RP 131], 3200 nM; under `COc1cccc(-c2ccc3c(c2)C2(COC(N)=N2)C2(COC2)C2(CCC2)O3)c1F` (stereo not drawn) [RP 137], 830 nM.
As for `NC1=NC2(CO1)c1cc(-c3cncc(OCC(F)F)c3)ccc1OCC21CC1` (stereo not drawn) [RP 59], the IC50 was 76 nM.
As for `CC1(C)Oc2ccc(-c3cncnc3)cc2C2(CSC(N)=N2)C12COC2` (stereo not drawn) [RP 54, 2′,2′-dimethyl-6′-(pyrimidin-5-yl)dispiro[oxetane-3,3′-chromene-4′,4″-[1,3]thiazol]-2″-amine hydrochloride], the IC50 came to 79 nM.
Under `CC#Cc1cncc(-c2ccc3c(c2)C2(COC(N)=N2)C2(COC2)C(C)(C)O3)c1` (stereo not drawn) [RP 110] stands 9.2 nM; under `Cc1cc(F)cc(-c2ccc3c(c2)C2(COC(N)=N2)C2(COC2)C(C)(C)O3)c1` (stereo not drawn) [RP 148], 480 nM; under `NC1=NC2(CO1)c1cc(Br)ccc1OC(CC1CC1)C21COC1` (stereo not drawn) [RP 16b], 4800 nM.
For `CC#Cc1cncc(-c2ccc3c(c2)C2(COC(N)=N2)C2(COC2)C(CCC)O3)c1` (stereo not drawn) [RP 92], the IC50 was found to be 37 nM.
With `COc1cncc(-c2ccc3c(c2)C2(COC(N)=N2)C2(COC2)C2(CCC2)O3)c1` (stereo not drawn) [RP 72], the IC50 was determined as 68 nM.
As to `CC1(C)Oc2ccc(NC(=O)c3ccc(Br)cn3)cc2[C@@]2(COC(N)=N2)C12COC2` [Example 219], the IC50 turned out to be 2.2 nM.
`CC1(C)Oc2ccc(-c3cc(F)ccn3)cc2C2(COC(N)=N2)C12COC2` (stereo not drawn) [RP 149]: the IC50 turned out to be 1100 nM.
As to `NC1=NC2(CO1)c1cc(-c3cncnc3)ccc1OCC21CCCO1` (stereo not drawn) [RP 97], the IC50 was 2600 nM.
Take `COCC#Cc1cncc(-c2ccc3c(c2)C2(COC(N)=N2)C2(COC2)CO3)c1` (stereo not drawn) [RP 19, 6′-[5-(3-methoxyprop-1-yn-1-yl)pyridin-3-yl]dispiro[1,3-oxazole-4,4′-chromene-3′,3″-oxetan]-2-amine]: the IC50 was determined as 430 nM.
As to `NC1=NC2(CO1)c1cc(-c3cncc(F)c3)ccc1OC1(CCC1)C21COC1` (stereo not drawn) [RP 70], the IC50 turned out to be 960 nM.
For the compound `NC1=NC2(CO1)c1cc(-c3cncc(C#CC4CC4)c3)ccc1OC1(CCC1)C21COC1` (stereo not drawn) [RP 48, 6′-[5-(cyclopropylethynyl)pyridin-3-yl]trispiro[cyclobutane-1,2′chromene-4′,4″-[1,3]oxazole-3′,3′″-oxetan]-2″-amine], the IC50 was determined as 690 nM.
Turning to `Cc1cncc(-c2ccc3c(c2)C2(COC(N)=N2)C2(COC2)C2(CCC2)O3)c1` (stereo not drawn) [RP 75, 6′-(5-methylpyridin-3-yl)trispiro[cyclobutane-1,2′-chromene-4′,4″-[1,3]oxazole-3′,3′″-oxetan]-2″-amine], the half-maximal inhibitory concentration (IC50) amounted to 1100 nM.
Then `CCCC1Oc2ccc(-c3cncnc3)cc2C2(COC(N)=N2)C12COC2` (stereo not drawn) [RP 91], with 340 nM.
For `CC#Cc1cncc(-c2ccc3c(c2)C2(CSC(N)=N2)C2(COC2)CO3)c1` (stereo not drawn) [RP 68], the IC50 came out at 500 nM.
Turning to `CC1(C)Oc2ccc(-c3cc(Cl)cnc3Cl)cc2C2(COC(N)=N2)C12COC2` (stereo not drawn) [RP 152], the IC50 was 110 nM.
Take `NC1=NC2(CO1)c1cc(-c3cncc(Cl)c3)ccc1OCC21CC1` (stereo not drawn) [RP 107]: the IC50 came out at 460 nM.
`NC1=NC2(CO1)c1cc(-c3cncnc3)ccc1OC1(CCC1)C21COC1` (stereo not drawn) [RP 5]: the IC50 was 590 nM.
As for `COc1cccc(-c2ccc3c(c2)C2(COC(N)=N2)C2(COC2)C(C)(C)O3)c1` (stereo not drawn) [RP 142], the IC50 worked out at 150 nM.
In the case of `CC1(C)Oc2ccc(-c3cccnc3Cl)cc2C2(COC(N)=N2)C12COC2` (stereo not drawn) [RP 156], the IC50 was found to be 180 nM.
`CC1(C)Oc2ccc(-c3cc(F)cc(Cl)c3)cc2C2(COC(N)=N2)C12COC2` (stereo not drawn) [RP 146, 6′-(3-chloro-5-fluorophenyl)-2′,2′-dimethyldispiro[1,3-oxazole-4,4′-chromene-3′,3″-oxetan]-2-amine]: the IC50 came out at 210 nM.
Regarding `CC#Cc1cncc(-c2ccc3c(c2)C2(COC(N)=N2)C2(CCC2)CO3)c1` (stereo not drawn) [RP 113], the IC50 turned out to be 470 nM.
`CC#Cc1cc(-c2ccc3c(c2)C2(COC(N)=N2)C2(COC2)CO3)ncn1` (stereo not drawn) [RP 21]: the IC50 came out at 410 nM.
For the compound `COc1cnc(C(=O)Nc2ccc3c(c2)[C@@]2(COC(N)=N2)C2(CC2)C(C)(C)O3)cn1` [Example 223, N-[(4′R)-2″-amino-2′,2′-dimethyldispiro[cyclopropane-1,3′-chromene-4′,4″-[1,3]oxazol]-6′-yl]-5-me thoxypyrazine-2-carboxamide], the IC50 was 3.1 nM.
As for `COCc1cnn(-c2ccc3c(c2)C2(COC(N)=N2)C2(COC2)C2(CCC2)O3)c1` (stereo not drawn) [RP 4], the concentration for half-maximal inhibition (IC50) worked out at 7200 nM.
With `CC1(C)Oc2ccc(-c3cc(F)ncc3Cl)cc2C2(COC(N)=N2)C12COC2` (stereo not drawn) [RP 158], the IC50 came to 370 nM.
As to `COc1cncc(-c2ccc3c(c2)C2(COC(N)=N2)C2(CC2)CO3)c1` (stereo not drawn) [RP 105], the IC50 worked out at 340 nM.
Take `NC1=NC2(CO1)c1cc(-c3cnc4[nH]ccc4c3)ccc1OCC21CC1` (stereo not drawn) [RP 61, 6′-(1H-pyrrolo[2,3-b]pyridin-5-yl)dispiro[cyclopropane-1,3′-chromene-4′,4″-[1,3]oxazol]-2″-amine]: the IC50 was 350 nM.
Under `NC1=NC2(CO1)c1cc(Nc3ncccc3Cl)ccc1OCC21COC1` (stereo not drawn) [RP 43, 6′-(3-chloropyridin-2-yl)aminodispiro[1,3-oxazole-4,4′-chromene-3′,3″-oxetane]-2-amine] stands 1400 nM; under `CC1(C)Oc2ccc(-c3cncnc3)cc2C2(COC(N)=N2)C12COC2` (single isomer, unassigned) [RP 51b, 2′,2′-dimethyl-6′-(pyrimidin-5-yl)dispiro[1,3-oxazole-4,4′-chromene-3′,3″-oxetan]-2-amine], 72 nM; under `CC1(C)Oc2ccc(-c3cncnc3)cc2C2(COC(N)=N2)C12COC2` (stereo not drawn) [RP 69], 40 nM.
On to `NC1=NC2(CO1)c1cc(-c3cncnc3)ccc1OCC21COC1` (stereo not drawn) [RP 36], for which the IC50 was 810 nM.
On to `CC#Cc1cncc(-c2ccc3c(c2)C2(COC(N)=N2)C2(COC2)C(CC2CC2)O3)c1` (stereo not drawn) [RP 205], for which the IC50 came out at 22 nM.
For the compound `CC1(C)Oc2ccc(-c3cccc(Cl)c3)cc2C2(COC(N)=N2)C12COC2` (stereo not drawn) [RP 139], the IC50 turned out to be 140 nM.
Under `NC1=NC2(CO1)c1cc(-c3cccnc3)ccc1OC1(CCC1)C21COC1` (stereo not drawn) [RP 209] stands 830 nM.
Take `COc1ccc(F)c(-c2ccc3c(c2)C2(COC(N)=N2)C2(COC2)C2(CCC2)O3)c1` (stereo not drawn) [RP 136, 6′-(2-fluoro-5-methoxyphenyl)trispiro[cyclobutane-1,2′-chromene-4′,4″-[1,3]oxazole-3′,3′″-oxetan]-2″-amine]: the IC50 came to 660 nM.
With `NC1=NC2(CO1)c1cc(-c3cccnc3F)ccc1OCC21CC1` (stereo not drawn) [RP 103], the IC50 was 450 nM.
In the case of `CCC1Oc2ccc(-c3cncnc3)cc2C2(COC(N)=N2)C12COC2` (stereo not drawn) [RP 84], the IC50 turned out to be 410 nM.
For `CC1(C)Oc2ccc(-c3cncc(Cl)n3)cc2C2(COC(N)=N2)C12COC2` (stereo not drawn) [RP 150], the IC50 was found to be 450 nM.
In the case of `CC1(C)Oc2ccc(-c3cc(C#N)ccc3F)cc2C2(COC(N)=N2)C12COC2` (stereo not drawn) [RP 170], the IC50 was 400 nM.
Regarding `C[C@@H]1Oc2ccc(-c3cccnc3F)cc2[C@@]2(COC(N)=N2)C12COC2` (racemic) [RP 79], the IC50 is 450 nM.
Regarding `NC1=NC2(CO1)c1cc(-c3cncnc3)ccc1OCC21CC(F)(F)C1` (stereo not drawn) [RP 208], the IC50 turned out to be 6100 nM.
Under `CC#Cc1cc(-c2ccc3c(c2)C2(COC(N)=N2)C2(COC2)CO3)ccn1` (stereo not drawn) [RP 20] stands 580 nM.
For the compound `CC#Cc1cncc(-c2ccc3c(c2)C2(COC(N)=N2)C2(COC2)CO3)n1` (stereo not drawn) [RP 22], the IC50 is 2900 nM.
For `NC1=NC2(CO1)c1cc(-c3cncnc3)c(F)cc1OCC21CC1` (stereo not drawn) [RP 102], the IC50 turned out to be 240 nM.
Then `CC1(C)Oc2ccc(-c3ccc4c(c3)OCO4)cc2C2(COC(N)=N2)C12COC2` (stereo not drawn) [RP 182], with 2500 nM; and `N#Cc1ncccc1-c1ccc2c(c1)C1(COC(N)=N1)C1(COC1)C1(CCC1)O2` (stereo not drawn) [RP 115, 3-(2″-aminotrispiro[cyclobutane-1,2′-chromene-4′,4″-[1,3]oxazole-3′,3′″-oxetan]-6′-yl)pyridine-2-carbonitrile], with 1100 nM.
On to `CCOc1cncc(-c2ccc3c(c2)C2(COC(N)=N2)C2(CC2)CO3)c1` (stereo not drawn) [RP 106], for which the IC50 amounted to 160 nM.
For `CC1(C)Oc2ccc(-c3ccc4[nH]ncc4c3)cc2C2(COC(N)=N2)C12COC2` (stereo not drawn) [RP 177], the IC50 is 1500 nM.
As to `COc1cccnc1Nc1ccc2c(c1)C1(COC(N)=N1)C1(COC1)CO2` (stereo not drawn) [RP 26], the IC50 was determined as 69 nM.
